Measurements taken from patent publication US20150337013A1, “NOVEL ANTIBACTERIAL AGENTS FOR THE TREATMENT OF GRAM POSITIVE INFECTIONS” (priority 2008, published 2015).
Read-outs that look alike come from different tables or passages of the source.

Key:
[1] = tested on: Staphylococcus aureus SAU.399 (ATCC 43300), Methicillin and Oxacillin Resistant; assay type: cell-based
Summary of the method: (§1)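 MIC in μg/mL, taken as the lowest compound concentration producing no visible turbidity after 18-20 hours at 37° C with shaking at 200 rpm. Organisms were grown in calcium-supplemented (50 mg/L) Mueller Hinton broth at 5×10^5 bacteria per well.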

[2] = tested on: Enterococcus faecalis EFS.201 (ATCC 49452); assay type: cell-based
Summary of the method: as §1

[3] = tested on: Staphylococcus aureus SAU.278, Daptomycin resistant mutant (D10); assay type: cell-based; settings: MHBc with 50 mg/L calcium, 18-20 hours at 37° C.
Summary of the method: as §1

[4] = tested on: Enterococcus faecium EFM.384, Daptomycin resistant mutant (14-A); assay type: cell-based; settings: MHBc with 50 mg/L calcium, 18-20 hours at 37° C.
Summary of the method: as §1

[5] = tested on: Staphylococcus aureus SAU.42 (ATCC 29213); assay type: cell-based
Summary of the method: as §1

[6] = tested on: Enterococcus faecalis EFS.312, Daptomycin resistant mutant (EFA); assay type: cell-based; settings: MHBc with 50 mg/L calcium, 18-20 hours at 37° C.
Summary of the method: as §1

[7] = tested on: Enterococcus faecium EFM.14 (ATCC 6569); assay type: cell-based
Summary of the method: as §1

[8] = tested on: Clostridium difficile
[9] = MHBc with 50 mg/L calcium, 18-20 hours at 37° C.

SMILES	Sa399 MIC ([1]; ATCC 43300)	Efs201 MIC ([2]; ATCC 49452)	Sa278 MIC [3]	Efm384 MIC [4]	Sa42 MIC ([5]; ATCC 29213)	Efs312 MIC [6]	Efm14 MIC ([7]; ATCC 6569)	C. diff MIC90 [8]	Sa399 MIC [1, 9]	Efs201 MIC [2, 9]	Sa42 MIC [5, 9]	Efm14 MIC [7, 9]
CCc1ccc(CCC(=O)N[C@@H](Cc2c[nH]c3ccccc23)C(=O)N[C@H](CC(N)=O)C(=O)N[C@@H](CC(=O)O)C(=O)N[C@@H]2C(=O)NCC(=O)N[C@@H](CCCN)C(=O)N[C@@H](CC(=O)O)C(=O)N[C@H](C)C(=O)N[C@@H](CC(=O)O)C(=O)NCC(=O)N[C@H](CO)C(=O)N[C@@H]([C@H](C)CC(=O)O)C(=O)N[C@@H](CC(=O)c3ccccc3N)C(=O)O[C@@H]2C)cc1 [Compound 29]	8 µg/mL	>32 µg/mL	>32 µg/mL	>32 µg/mL	8 µg/mL	>32 µg/mL	>32 µg/mL	16 µg/mL	–	–	–	–
CCCCCCCCCC(C)NC(=O)N[C@@H](Cc1c[nH]c2ccccc12)C(=O)N[C@H](CC(N)=O)C(=O)N[C@@H](CC(=O)O)C(=O)N[C@@H]1C(=O)NCC(=O)N[C@@H](CCCN)C(=O)N[C@@H](CC(=O)O)C(=O)N[C@H](C)C(=O)N[C@@H](CC(=O)O)C(=O)NCC(=O)N[C@H](CO)C(=O)N[C@@H]([C@H](C)CC(=O)O)C(=O)N[C@@H](CC(=O)c2ccccc2N)C(=O)O[C@@H]1C (single isomer, unassigned) [14 isomer II]	0.25 µg/mL	0.5 µg/mL	1 µg/mL	8 µg/mL	0.25 µg/mL	16 µg/mL	0.25 µg/mL	2 µg/mL	–	–	–	–
CCCCCC1CCC(NC(=O)N[C@@H](Cc2c[nH]c3ccccc23)C(=O)N[C@H](CC(N)=O)C(=O)N[C@@H](CC(=O)O)C(=O)N[C@@H]2C(=O)NCC(=O)N[C@@H](CCCN)C(=O)N[C@@H](CC(=O)O)C(=O)N[C@H](C)C(=O)N[C@@H](CC(=O)O)C(=O)NCC(=O)N[C@H](CO)C(=O)N[C@@H]([C@H](C)CC(=O)O)C(=O)N[C@@H](CC(=O)c3ccccc3N)C(=O)O[C@@H]2C)CC1 (stereo partly drawn) [Compound 17]	–	–	0.25 µg/mL	16 µg/mL	–	>32 µg/mL	–	1 µg/mL	0.25 µg/mL	1 µg/mL	0.25 µg/mL	1 µg/mL
CCCCCCCCCCC(=O)N[C@@H](Cc1c[nH]c2ccccc12)C(=O)N[C@H](CC(N)=O)C(=O)N[C@@H](CC(=O)O)C(=O)N[C@@H]1C(=O)NCC(=O)N[C@@H](CCCN)C(=O)N[C@@H](CC(=O)O)C(=O)N[C@H](C)C(=O)N[C@@H](CC(=O)O)C(=O)NCC(=O)N[C@H](CO)C(=O)N[C@@H]([C@H](C)CC(=O)O)C(=O)N[C@@H](CC(=O)c2ccccc2N)C(=O)O[C@@H]1C [Compound 2]	0.5 µg/mL	2 µg/mL	8 µg/mL	>32 µg/mL	2 µg/mL	32 µg/mL	2 µg/mL	4 µg/mL	–	–	–	–
CCCCCCCCC1CC1C(=O)N[C@@H](Cc1c[nH]c2ccccc12)C(=O)N[C@H](CC(N)=O)C(=O)N[C@@H](CC(=O)O)C(=O)N[C@@H]1C(=O)NCC(=O)N[C@@H](CCCN)C(=O)N[C@@H](CC(=O)O)C(=O)N[C@H](C)C(=O)N[C@@H](CC(=O)O)C(=O)NCC(=O)N[C@H](CO)C(=O)N[C@@H]([C@H](C)CC(=O)O)C(=O)N[C@@H](CC(=O)c2ccccc2N)C(=O)O[C@@H]1C (single isomer, unassigned) [27 isomer I]	2 µg/mL	2 µg/mL	8 µg/mL	32 µg/mL	2 µg/mL	32 µg/mL	4 µg/mL	2 µg/mL	–	–	–	–
C[C@H](CC(=O)O)[C@@H]1NC(=O)[C@@H](CO)NC(=O)CNC(=O)[C@H](CC(=O)O)NC(=O)[C@@H](C)NC(=O)[C@H](CC(=O)O)NC(=O)[C@H](CCCN)NC(=O)CNC(=O)[C@@H](NC(=O)[C@H](CC(=O)O)NC(=O)[C@@H](CC(N)=O)NC(=O)[C@H](Cc2c[nH]c3ccccc23)NC(=O)C2(c3ccc(Cl)cc3)CCCCC2)[C@@H](C)OC(=O)[C@H](CC(=O)c2ccccc2N)NC1=O [Compound 72]	>32 µg/mL	>32 µg/mL	>32 µg/mL	>32 µg/mL	>32 µg/mL	>32 µg/mL	>32 µg/mL	32 µg/mL	–	–	–	–
CCCCCCCCCCCCCCC(=O)N[C@@H](Cc1c[nH]c2ccccc12)C(=O)N[C@H](CC(N)=O)C(=O)N[C@@H](CC(=O)O)C(=O)N[C@@H]1C(=O)NCC(=O)N[C@@H](CCCN)C(=O)N[C@@H](CC(=O)O)C(=O)N[C@H](C)C(=O)N[C@@H](CC(=O)O)C(=O)NCC(=O)N[C@H](CO)C(=O)N[C@@H]([C@H](C)CC(=O)O)C(=O)N[C@@H](CC(=O)c2ccccc2N)C(=O)O[C@@H]1C [Compound 7]	0.5 µg/mL	0.25 µg/mL	2 µg/mL	4 µg/mL	1 µg/mL	4 µg/mL	0.5 µg/mL	16 µg/mL	–	–	–	–
C[C@H](CC(=O)O)[C@@H]1NC(=O)[C@@H](CO)NC(=O)CNC(=O)[C@H](CC(=O)O)NC(=O)[C@@H](C)NC(=O)[C@H](CC(=O)O)NC(=O)[C@H](CCCN)NC(=O)CNC(=O)[C@@H](NC(=O)[C@H](CC(=O)O)NC(=O)[C@@H](CC(N)=O)NC(=O)[C@H](Cc2c[nH]c3ccccc23)NC(=O)CCCCCCC2CCCCC2)[C@@H](C)OC(=O)[C@H](CC(=O)c2ccccc2N)NC1=O [Compound 25]	0.5 µg/mL	0.5 µg/mL	1 µg/mL	8 µg/mL	0.5 µg/mL	16 µg/mL	1 µg/mL	1 µg/mL	–	–	–	–
CCCCCCCCC1CC1C(=O)N[C@@H](Cc1c[nH]c2ccccc12)C(=O)N[C@H](CC(N)=O)C(=O)N[C@@H](CC(=O)O)C(=O)N[C@@H]1C(=O)NCC(=O)N[C@@H](CCCN)C(=O)N[C@@H](CC(=O)O)C(=O)N[C@H](C)C(=O)N[C@@H](CC(=O)O)C(=O)NCC(=O)N[C@H](CO)C(=O)N[C@@H]([C@H](C)CC(=O)O)C(=O)N[C@@H](CC(=O)c2ccccc2N)C(=O)O[C@@H]1C (single isomer, unassigned) [27 isomer II]	0.5 µg/mL	0.5 µg/mL	2 µg/mL	4 µg/mL	1 µg/mL	32 µg/mL	1 µg/mL	1 µg/mL	–	–	–	–
CCCCCCCCOc1ccc(-c2ccc(C(=O)N[C@@H](Cc3c[nH]c4ccccc34)C(=O)N[C@H](CC(N)=O)C(=O)N[C@@H](CC(=O)O)C(=O)N[C@@H]3C(=O)NCC(=O)N[C@@H](CCCN)C(=O)N[C@@H](CC(=O)O)C(=O)N[C@H](C)C(=O)N[C@@H](CC(=O)O)C(=O)NCC(=O)N[C@H](CO)C(=O)N[C@@H]([C@H](C)CC(=O)O)C(=O)N[C@@H](CC(=O)c4ccccc4N)C(=O)O[C@@H]3C)cc2)cc1 [Compound 64]	–	–	0.5 µg/mL	4 µg/mL	–	16 µg/mL	–	1 µg/mL	0.25 µg/mL	0.5 µg/mL	0.125 µg/mL	1 µg/mL
CCCCCCCCCCCCC(=O)N[C@@H](Cc1c[nH]c2ccccc12)C(=O)N[C@H](CC(N)=O)C(=O)N[C@@H](CC(=O)O)C(=O)N[C@@H]1C(=O)NCC(=O)N[C@@H](CCCN)C(=O)N[C@@H](CC(=O)O)C(=O)N[C@H](C)C(=O)N[C@@H](CC(=O)O)C(=O)NCC(=O)N[C@H](CO)C(=O)N[C@@H]([C@H](C)CC(=O)O)C(=O)N[C@@H](CC(=O)c2ccccc2N)C(=O)O[C@@H]1C [Compound 5]	0.5 µg/mL	0.5 µg/mL	2 µg/mL	8 µg/mL	0.5 µg/mL	8 µg/mL	0.5 µg/mL	8 µg/mL	–	–	–	–
CC(C)Cc1ccc(C(C)C(=O)N[C@@H](Cc2c[nH]c3ccccc23)C(=O)N[C@H](CC(N)=O)C(=O)N[C@@H](CC(=O)O)C(=O)N[C@@H]2C(=O)NCC(=O)N[C@@H](CCCN)C(=O)N[C@@H](CC(=O)O)C(=O)N[C@H](C)C(=O)N[C@@H](CC(=O)O)C(=O)NCC(=O)N[C@H](CO)C(=O)N[C@@H]([C@H](C)CC(=O)O)C(=O)N[C@@H](CC(=O)c3ccccc3N)C(=O)O[C@@H]2C)cc1 (single isomer, unassigned) [45 isomer II]	4 µg/mL	32 µg/mL	>32 µg/mL	>32 µg/mL	4 µg/mL	>32 µg/mL	32 µg/mL	8 µg/mL	–	–	–	–
